Here are results for one compound from patent US8663915B2, “Methods of controlling tumorigenesis and diagnosing the risk thereof” (Agency for Science, Technology and Research, priority 2007, dated 2014).

One assay deals with MCF10A-RCP cells. Particulars: 30 uM U0126.
In assay [1] the test system is ERK phosphorylation in MCF10A-RCP cells.
Experimental: Western blot analysis. Whole cell lysates were prepared using RIPA buffer. The proteins were separated by SDS-PAGE and transferred to Hybond-P PVDF membrane (GE Healthcare). Antibodies to RCP (Genway, Catalog Number (CN): 15-288-21574A), β-actin (Sigma, CN: A5441), phospho-Akt (Cell Signaling Technology, CN: 9271), Akt (Cell Signaling Technology, CN: 9272), phospho-Erk (Cell Signaling Technology, CN: 9101), and Erk (Cell Signalling, CN: 9102) were used to probe the membrane, and antibody-protein complex was detected by HRP-conjugated antibodies and ECL (Amersham Biosciences).
For the MAPK inhibition assays, cells were treated with MEK inhibitor U0126 (Promega) overnight in medium with 0.5% serum before being re-plated into 96-well plates.

Regarding `N#CC(=C(/N)Sc1ccccc1N)/C(C#N)=C(\N)Sc1ccccc1N` [U0126], the proliferation result with MCF10A-RCP cells is given as “reduction of proliferation down to control levels”. In assay [1] (30 μM of U0126), the “RCP-induced phosphorylation of ERK” value is “reduced to baseline”. Also, in assay [1] (range of U0126 concentrations), the ERK phosphorylation status entry was “concentration dependent”.
